In patent publication US20180209956A1, “HTS Assay for Identifying Small Molecule Inhibitors of RAD52 and Uses of Identified Small Molecule Inhibitors for Treatment and Prevention of BRCA-Deficient Malignancies” (University of Iowa Research Foundation, priority 2015, published 2018):

Legend:
RAD52 = biological target: T1, RAD52 (Homo sapiens, UniProt P43351); assay: WaterLOGSY NMR analysis of compound binding to RAD52; parameters: made in house; conditions: 20 or 40 μM compound, 3.3 μM RAD52
T1 sequence (P43351 1-418): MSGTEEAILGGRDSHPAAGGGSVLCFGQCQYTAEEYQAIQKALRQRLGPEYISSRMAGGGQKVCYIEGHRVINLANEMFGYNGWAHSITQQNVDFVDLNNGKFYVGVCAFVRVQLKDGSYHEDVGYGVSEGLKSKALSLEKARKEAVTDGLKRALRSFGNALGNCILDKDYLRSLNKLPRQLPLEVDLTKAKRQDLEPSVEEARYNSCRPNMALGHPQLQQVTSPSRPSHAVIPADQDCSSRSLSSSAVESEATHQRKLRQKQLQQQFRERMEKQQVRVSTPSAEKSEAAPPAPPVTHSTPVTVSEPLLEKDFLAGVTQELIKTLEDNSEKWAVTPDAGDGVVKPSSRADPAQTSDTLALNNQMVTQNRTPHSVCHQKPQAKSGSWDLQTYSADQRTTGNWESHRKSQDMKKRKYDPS
Method: In WaterLOGSY spectrum, if a compound binds to a protein, the compound will receive negative nuclear Overhauser effects (NOEs) due to the slow tumbling of the protein-compound complex, leading to a positive WaterLOGSY peak.
WaterLOGSY NMR analysis of the compound binding to RAD52 and RPA proteins: Compound binding to RAD52 and RPA proteins was analyzed using water-ligand observation with gradient spectroscopy (WaterLOGSY) NMR experiments (Dalvit et al., 2001, Dalvit et al., 2000). The WaterLOGSY spectra of compounds in the presence of RAD52 or RPA were acquired using a water NOE mixing time of 1 s and a T2 relaxation filter of 50 ms just before data acquisition to suppress the broad signals derived from protein. The protein buffer used in the experiments contains 10 mM Tris-d11, 75 mM KCl, 0.25 mM EDTA, pH 7.5, and 10% D20. All NMR data were acquired on a Bruker Avance II 800 MHz NMR spectrometer equipped with a sensitive cryoprobe and recorded at 25° C. The ^1H chemical shifts were referenced to 2,2-dimethyl-2-silapentane-5-sulfonate (DSS). NMR spectra were processed using NMR Pipe (Delaglio et al., 1995) and analysed using NMR View (Johnson and Blevins, 1994).

RAD52-dsDNA interaction = biological target: T2, RAD52-dsDNA interaction (Homo sapiens, UniProt P43351); assay: FRET-based RAD52-dsDNA binding assay; conditions: 1 nM dsDNA, 10 nM RAD52
T2 construct: made in house
T2 sequence (P43351 1-418): T1 sequence (P43351 1-418)
Excerpt: These assays utilize two complementary single stranded 28-nucleotide-long substrates, which contain either Cy3 (T-28) or Cy5 (P-28) incorporated into the middle of the respective DNA strand. When the substrates are annealed by RAD52, the Cy3 and Cy5 dyes are separated by 3 base pairs and yield a high FRET signal (FIG. 2 Supplement 2). […] The annealing reactions were initiated by mixing two half reactions and observing the change in FRET over time in the presence of varying concentrations of small molecules. An increasing FRET value over time indicates formation of the dsDNA duplex which brings the two dyes in close proximity (FIG. 2 Supplement 2). Fitting the annealing data to a double exponential allowed us to calculate and compare the final extent of annealing at varying concentrations of each compound compared to RAD52 alone. We plotted the final extent of annealing vs the concentration of the compound and calculated an IC50 of annealing inhibition.
where FRET0 is the initial FRET value of RAD52-ssDNA complex in the absence of the compound and FRETmin is the FRET value at complete inhibition. FRET values were calculated as an average of three or more independent annealing reactions plotted against the concentration of the compound. […]

[1] = biological target: T3, interaction between RAD52 and RPA proteins (Homo sapiens, UniProt P43351); assay: Ni-NTA pull-down of RAD52 and RPA; type: binding; conditions: 3 μM RAD52, 3 μM RPA, 3 μM compound
T3 construct: made in house

GM01604 cells [2] = assay: LIVE/DEAD cell viability assay; type: cell-based, human; conditions: for Dead cells: MUS81-depleted cells
Method: Cell Viability Live/Dead Assays: GM01604 cells were transfected with siRNAs directed against GFP (Ctrl), or against MUS81 (Qiagen), BRCA2 (Sigma-Aldrich), and RAD52 (Qiagen) 48 hours prior to addition of 1 μM ‘1’. Where indicated, the conditions of pathological replication were induced by treating cells with 2 mM HU and 300 nM UCN01 for 6 h or by a 18 hours treatment with 2 mM HU, in the presence or absence of ‘1’. Viability was evaluated by the LIVE/DEAD assay (Sigma-Aldrich) according to the manufacturer's instructions. Cell number was counted in randomly chosen fields and expressed as percent of dead cells (number of red nuclear stained cells divided by the total cell number) corrected for the cell loss observed in the population. For each time point, at least 200 cells were counted.

GM01604 cells [3] = assay: Anaphase bridges after aphidicolin (MUS81 activity); type: cell-based, human; conditions: aphidicolin 24 h, increasing concentration of compound
Method: Forty eight hours after transfection the fibroblasts were lysed and analysed by WB with the indicated antibodies. b) Forty eight hours after transfection, GM01604 cells were exposed to […] aphidicolin (APH) for 24 h in the presence (grey bars) or absence (white bars) of increasing concentration of ‘1’ added in the last 3 h before aphidicolin treatment. Results are presented as mean±SEM from two independent replicates. c) The presence of anaphase bridges, as shown in the representative images, was scored in DAPI-stained cells. The white bars indicate 10 μm.

T3 sequence (P27694 whole entry partner, one chain of several): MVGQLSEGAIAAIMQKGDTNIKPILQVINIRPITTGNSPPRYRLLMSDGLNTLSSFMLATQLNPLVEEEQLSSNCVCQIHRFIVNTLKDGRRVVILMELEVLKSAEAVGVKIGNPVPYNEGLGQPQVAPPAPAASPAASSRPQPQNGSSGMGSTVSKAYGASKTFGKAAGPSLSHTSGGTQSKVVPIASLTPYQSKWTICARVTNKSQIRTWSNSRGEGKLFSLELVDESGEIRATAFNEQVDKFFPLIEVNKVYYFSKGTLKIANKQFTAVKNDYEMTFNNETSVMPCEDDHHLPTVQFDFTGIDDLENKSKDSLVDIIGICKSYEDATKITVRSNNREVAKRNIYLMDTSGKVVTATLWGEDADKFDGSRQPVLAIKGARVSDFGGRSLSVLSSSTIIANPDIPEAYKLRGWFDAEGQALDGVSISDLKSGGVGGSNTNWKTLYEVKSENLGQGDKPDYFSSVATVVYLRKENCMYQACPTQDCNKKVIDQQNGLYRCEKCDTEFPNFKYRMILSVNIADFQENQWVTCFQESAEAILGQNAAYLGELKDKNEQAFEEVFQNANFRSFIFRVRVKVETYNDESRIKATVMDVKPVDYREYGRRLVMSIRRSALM
T3 sequence (P15927 whole entry partner, one chain of several): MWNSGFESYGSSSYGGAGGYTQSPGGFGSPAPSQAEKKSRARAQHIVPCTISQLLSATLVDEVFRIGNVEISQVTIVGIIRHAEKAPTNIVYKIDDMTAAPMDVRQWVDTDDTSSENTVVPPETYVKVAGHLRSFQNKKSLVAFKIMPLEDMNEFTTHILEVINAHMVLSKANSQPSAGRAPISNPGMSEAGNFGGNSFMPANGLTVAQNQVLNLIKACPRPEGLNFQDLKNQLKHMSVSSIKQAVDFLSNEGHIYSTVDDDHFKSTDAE
T3 sequence (P35244 whole entry partner, one chain of several): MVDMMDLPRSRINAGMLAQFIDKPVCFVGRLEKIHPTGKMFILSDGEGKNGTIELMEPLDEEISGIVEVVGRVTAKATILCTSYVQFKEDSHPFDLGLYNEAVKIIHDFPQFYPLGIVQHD

Structure (SMILES) | Binding to RAD52 by WaterLOGSY (RAD52) | Effect on the RAD52-dsDNA interaction (RAD52-dsDNA interaction) | Effect on the interaction between RAD52 and RPA proteins [1] | Cell death after prolonged replication arrest (GM01604 cells [2]; BRCA2-depleted cells, HU 18 h) | Cell death (GM01604 cells [2]; BRCA2-depleted cells, after replication stress, 1 μM compound) [%] | Cell death after HU+UCN01 (GM01604 cells [2]; Ctrl siRNA cells, 1 μM compound) | Dead cells (GM01604 cells [2]; checkpoint-deficient, HU treated, 1 μM compound) [%] | Dead cells (GM01604 cells [2]; untreated, 1 μM compound) | Effect on MUS81 activity (anaphase bridges) (GM01604 cells [3])
O=C(O[C@@H]1Cc2c(O)cc(O)cc2O[C@@H]1c1cc(O)c(O)c(O)c1)c1cc(O)c(O)c(O)c1 [Compound 6, Epigallocatechin-3-monogallate] | positive WaterLOGSY peaks | able to displace dsDNA | no effect |  |  |  |  |  | 
Oc1cc(O)c2c(c1)O[C@H](c1cc(O)c(O)c(O)c1)[C@H](O)C2 [Compound ‘1’, (−)-Epigallocatechin] |  |  |  | substantial increase in cell death | ~80 | potentiated the effect of the combined HU+UCN01 treatment | ~60 | approximately 40% | does not affect MUS81 activity
